Starred links: 1 amine or outer side, 2 acyl side, 3 side chain; linkers in the order of their positions; H or OH if unused. Positions of bridges follow the written chain, without caps; N, C: chain ends. Non-standard residues stand in square brackets, D forms with d. Residues, ends and D or L forms follow the SMILES beside them. Chains are numbered I, II in the order given. Actinocin(1to9) = Cc1c2oc3c(C)ccc(C(=O)[*:2])c3nc-2c(C(=O)[*:1])c(N)c1=O; NMeV = CN[C@H](C(=O)O)C(C)C; Sar = CNCC(=O)O

Usually IC50 stands for the point on the concentration scale where inhibition reaches its midpoint.

Common to all, as to type: cell-based
The nature of series [1]: Inhibition of PAX3-FOXO1 (unknown origin) stably transfected Rh4 cells co-expressing ALK-Luc after 24 hrs by SteadyLite luciferase assay. The settings on record: Homo sapiens, Rh4, 24 h.
Series [2] in a line: Inhibition of PAX3-FOXO1 (unknown origin) stably transfected Rh4 cells co-expressing CMV-Luc after 24 hrs by SteadyLite luciferase assay. The conditions noted are these: Homo sapiens, Rh4, 24 h.
Series [3] can be described thus: Cytotoxicity against human Rh4 cells assessed as reduction in cell viability >=20 uM.

In the case of `O=C1C(c2ccc(O)cc2)=C2C(=C(c3ccc(O)cc3)C(=O)N2CCc2ccc(O)cc2)c2c1[nH]c1c(O)cccc21`, the IC50 in series [1] and in series [2] was 13 µM in each case. Moreover, the Activity entry in series [3] is recorded as “Toxic”.
As to `Cc1c2oc3c(C)ccc(C(=O)N[C@@H]4C(=O)N[C@H](C(C)C)C(=O)N5CCC[C@H]5C(=O)N(C)CC(=O)N(C)[C@@H](C(C)C)C(=O)O[C@@H]4C)c3nc-2c(C(=O)N[C@@H]2C(=O)N[C@H](C(C)C)C(=O)N3CCC[C@H]3C(=O)N(C)CC(=O)N(C)[C@@H](C(C)C)C(=O)O[C@@H]2C)c(N)c1=O` [DACTINOMYCIN] (I: T[dV]P[Sar][NMeV] / II: T[dV]P[Sar][NMeV]; ester I:1-I:C, II:1-II:C; linker I:N-II:N via Actinocin(1to9)), the IC50 in series [1] and in series [2] was 0.001 µM in each case.

These data come from ChEMBL document CHEMBL4673271, “Denigrins and Dactylpyrroles, Arylpyrrole Alkaloids from a Dactylia sp. Marine Sponge” (J Nat Prod, 2020).
